From patent publication US9340493B2, “Hydroxamic acid derivatives useful as antibacterial agents” (Pfizer Inc., priority 2008, dated 2016)
Values after ≈ are worked out from the molar mass of the structure shown.

Assays:
[1] = target: T1, Pseudomonas aeruginosa LpxC enzyme (Pseudomonas aeruginosa, UniProt P47205); assay: IC50 assay, LpxC enzyme from P. aeruginosa; type: biochemical; settings: 0.5 nM enzyme, 25° C., pH 8.0, 20 min; ** = average of 2-8 assays
T1 construct: made in house; host or cells: E. coli
T1 sequence (P47205 1-303): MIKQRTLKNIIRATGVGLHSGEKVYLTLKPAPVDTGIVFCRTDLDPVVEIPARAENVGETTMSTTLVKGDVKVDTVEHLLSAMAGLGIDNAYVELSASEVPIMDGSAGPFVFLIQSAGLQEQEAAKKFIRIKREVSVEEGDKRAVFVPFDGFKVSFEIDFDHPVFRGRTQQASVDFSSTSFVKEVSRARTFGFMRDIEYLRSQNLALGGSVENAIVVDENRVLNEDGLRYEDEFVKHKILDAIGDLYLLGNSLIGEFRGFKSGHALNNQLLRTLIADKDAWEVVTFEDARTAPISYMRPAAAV
Method in brief: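 P. aeruginosa LpxC (0.5 nM, expressed in E. coli) reacted with 0.5 uM ³H-acetyl-labelled UDP-3-O-(R-3-hydroxydecanoyl)-GlcNAc in 50 mM sodium phosphate pH 8.0 with 1 mg/ml BSA at 25 °C for 20 min. Charcoal stopped the reaction, and filtrate radioactivity was counted by scintillation after no-enzyme background subtraction.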

P. aeruginosa UI-18 = assay: MIC determination, P. aeruginosa UI-18; type: cell-based; settings: Pseudomonas aeruginosa, UI18; wild-type; * = arithmetic mean of 2-6 MIC determinations; read-out: MIC (ug/mL) P. aeruginosa UI-18
Method in brief: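 MIC by broth dilution following CLSI M7-A7 and M100-S18 guidelines, tested against wild-type P. aeruginosa UI-18.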

Escherichia coli EC-1 = assay: MIC determination, E. coli EC-1; type: cell-based; settings: EC1, EC-1: VOGEL, * = arithmetic mean of 2-6 MIC determinations, read-out: MIC (ug/mL) E. coli EC-1
Procedure: (§1) MIC determinations: The in vitro antibacterial activity of compounds described in the Examples was evaluated by minimum inhibitory concentration (MIC) testing according to Clinical and Laboratory Standards Institute (CLSI, formerly NCCLS) guidelines. See: Clinical and Laboratory Standards Institute. Methods for Dilution Antimicrobial Susceptibility Tests for Bacteria that Grow Aerobically; Approved Standard-Seventh Edition. CLSI document M7-A7 [ISBN 1-56238-587-9]. Clinical and Laboratory Standards Institute, 940 West Valley Road, Suite 1400, Wayne, Pa. 19087-1898 USA, 2006; also Clinical and Laboratory Standards Institute. Performance Standards for Antimicrobial Susceptibility Testing; Eighteenth Informational Supplement. CLSI document M100-S18 [ISBN1-56238-653-0]. Clinical and Laboratory Standards Institute.
(§2) The following bacterial strains were used:
Escherichia coli EC-1: VOGEL;

[2] = tested on: Acinetobacter baumanii/haemolyticus; assay: MIC determination, A. baumanii/haemolyticus; type: cell-based; settings: Acinetobacter baumannii; multidrug-resistant clinical isolate; * = arithmetic mean of 2-6 MIC determinations; read-out: MIC (ug/mL) A. baumanii/haemolyticus
Procedure: as §1, §2
Acinetobacter baumanii/haemolyticus: Multidrug-resistant clinical isolate;

[3] = tested on: Staphylococcus aureus ATCC 29213; assay: MIC determination, S. aureus ATCC 29213; type: cell-based; settings: ATCC29213, CLSI quality control reference strain, * = arithmetic mean of 2-6 MIC determinations, read-out: MIC (ug/mL) S. aureus ATCC 29213
Method in brief: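 MIC was measured by dilution susceptibility testing following CLSI guidelines (M7-A7; M100-S18). The test organism is the CLSI quality-control reference strain.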

P. aeruginosa PAO280 = assay: MIC determination, P. aeruginosa PAO280; type: cell-based; settings: Pseudomonas aeruginosa, PAO280, read-out: MIC (ug/mL) P. aeruginosa PAO280
Method in brief: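 Broth dilution MIC per CLSI M7-A7/M100-S18 guidelines. Strain PAO280 lacks efflux pumps MexAB-oprM, MexXY and MexZ.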

Enterobacter aerogenes = assay: MIC determination, E. aerogenes; type: cell-based; settings: Klebsiella aerogenes; quinolone-resistant, ESBL-expressing clinical isolate; * = arithmetic mean of 2-6 MIC determinations; read-out: MIC (ug/mL) E. aerogenes
Procedure: as §1, §2
Enterobacter aerogenes: Quinolone-resistant isolate, expresses extended-spectrum beta-lactamases (ESBL), clinical isolate;

Klebsiella pneumoniae = assay: MIC determination, K. pneumoniae; type: cell-based; settings: ciprofloxacin-resistant, ESBL-expressing clinical isolate, * = arithmetic mean of 2-6 MIC determinations, read-out: MIC (ug/mL) K. pneumoniae
Procedure: as §1, §2
Klebsiella pneumoniae: Ciprofloxacin-resistant isolate, expresses extended-spectrum beta-lactamases (ESBL), clinical isolate;

SMILES | IC50 [1] [µM] | MIC (P. aeruginosa UI-18) [µg/mL] | MIC (Escherichia coli EC-1) [µg/mL] | MIC [2] [µg/mL] | MIC [3] [µg/mL] | MIC (P. aeruginosa PAO280) [µg/mL] | MIC (Enterobacter aerogenes) [µg/mL] | MIC (Klebsiella pneumoniae) [µg/mL]
C[C@@](OCc1ccc(-c2ccccc2)cc1)(C(=O)NO)[C@@H](O)c1ccon1 [Example 31, (2S,3S)-2-(biphenyl-4-ylmethoxy)-N,3-dihydroxy-3-isoxazol-3-yl-2-methylpropanamide] | 0.000406 | 6 (≈ 16.3 µM) | 16 (≈ 43.4 µM) | 32 (≈ 86.9 µM) | > 64 | 0.06 (≈ 0.163 µM) | > 64 | 48 (≈ 130 µM)
C[C@@](OCc1ccc(-c2ccccc2)cc1)(C(=O)NO)[C@@H](O)c1cc(S(C)(=O)=O)on1 [Example 43, (2S,3S)-2-(biphenyl-4-ylmethoxy)-N,3-dihydroxy-2-methyl-3-[5-(methylsulfonyl)isoxazol-3-yl]propanamide] | 0.000686 | 2 (≈ 4.48 µM) | 4 (≈ 8.96 µM) | 64 (≈ 143 µM) | 64 (≈ 143 µM) | 0.03 (≈ 0.0672 µM) | 64 (≈ 143 µM) | 16 (≈ 35.8 µM)
CCc1ccc(-c2ccc(CO[C@](C)(C(=O)NO)[C@@H](O)c3cc(CO)on3)cc2)cc1 [Example 36, (2S,3S)-2-[(4′-ethylbiphenyl-4-yl)methoxy]-N,3-dihydroxy-4-[5-(hydroxymethyl)isoxazol-3-yl]-2-methylpropanamide] | 0.000244 | 1 (≈ 2.34 µM) | 4 (≈ 9.38 µM) | 32 (≈ 75 µM) | 64 (≈ 150 µM) | 0.03 (≈ 0.0703 µM) | 64 (≈ 150 µM) | 16 (≈ 37.5 µM)
Cc1cc(CNC(=O)C(C)(OCc2ccc(-c3cnccn3)cc2)C(=O)NO)no1 (centres unmarked) [Example 90, N-hydroxy-2-methyl-N′-[(5-methylisoxazol-3-yl)methyl]-2-[(4-pyrazin-2-ylbenzyl)oxy]malonamide] | 0.147 | > 64 | > 64 | > 64 | > 64 | 4 (≈ 9.72 µM) | > 64 | > 64
C[C@@](OCc1ccc(-c2ccccc2)cc1)(C(=O)NO)[C@@H](O)c1cn2ccccc2n1 [Example 25, (2S,3S)-2-(biphenyl-4-ylmethoxy)-N,3-dihydroxy-3-imidazo[1,2-a]pyridin-2-yl-2-methylpropanamide] | 0.00138 | 1.67 (≈ 4 µM) | 3 (≈ 7.19 µM) | 32 (≈ 76.7 µM) | > 64 | 0.03 (≈ 0.0719 µM) | 16 (≈ 38.3 µM) | 4 (≈ 9.58 µM)
Cc1nc([C@H](O)[C@](C)(OCc2ccc(-c3ccccc3)cc2)C(=O)NO)c(C)o1 [Example 27, (2S,3S)-2-(biphenyl-4-ylmethoxy)-3-(2,5-dimethyl-1,3-oxazol-4-yl)-N,3-dihydroxy-2-methylpropanamide] | 0.0652 | > 64 | > 64 | > 64 | > 64 | 16 (≈ 40.4 µM) | > 64 | > 64
Cc1cc(CNC(=O)C(C)(OCc2ccc(-c3ccc(-c4cc(CO)no4)cc3)cc2)C(=O)NO)no1 (centres unmarked) [Example 84, N-hydroxy-2-({4′-[3-(hydroxymethyl)isoxazol-5-yl]biphenyl-4-yl}methoxy)-2-methyl-N′-[(5-methylisoxazol-3-yl)methyl]malonamide] | 0.000861 | 2 (≈ 3.95 µM) | 1 (≈ 1.97 µM) | > 64 | > 64 | 0.06 (≈ 0.118 µM) | 16 (≈ 31.6 µM) | 8 (≈ 15.8 µM)
C[C@@](OCc1ccc(-c2ccccc2)cc1)(C(=O)NO)[C@@H](O)c1ccccn1 [Example 17, (2S,3S)-2-(biphenyl-4-ylmethoxy)-N,3-dihydroxy-2-methyl-3-pyridin-2-ylpropanamide] | 0.0015 | 8 (≈ 21.1 µM) | 16 (≈ 42.3 µM) | 32 (≈ 84.6 µM) | > 64 | 0.25 (≈ 0.661 µM) | > 64 | > 64
CC(OCc1ccc(-c2ccccc2)cc1)(C(=O)NO)C(=O)NCc1nc(-c2ccccc2)no1 (centres unmarked) [Example 69, 2-(biphenyl-4-ylmethoxy)-N-hydroxy-2-methyl-N′-[(3-phenyl-1,2,4-oxadiazol-5-yl)methyl]malonamide] | 0.00446 | 12 (≈ 25.4 µM) | 16 (≈ 33.9 µM) | 16 (≈ 33.9 µM) | > 16 | 0.75 (≈ 1.59 µM) | > 16 | > 16
CC(CO)(OCc1ccc(-c2ccc(Cl)cc2)cc1)C(=O)NO (centres unmarked) [Example 62, 2-[(4′-chlorobiphenyl-4-yl)methoxy]-N,3-dihydroxy-2-methylpropanamide] | 0.00417 | 32 (≈ 95.3 µM) | > 32 | > 32 | > 32 | 1 (≈ 2.98 µM) | > 32 | > 32
Cc1cccc(-c2ccc(COC(C)(C(=O)NO)C(=O)NCc3cc(C)on3)cc2)n1 (centres unmarked) [Example 89, N-hydroxy-2-methyl-N′-[(5-methylisoxazol-3-yl)methyl]-2-{[4-(6-methylpyridin-2-yl)benzyl]oxy}malonamide] | 0.0135 | > 64 | > 64 | > 64 | > 64 | 1 (≈ 2.36 µM) | > 64 | > 64
C[C@@](OCc1ccc(-c2ccccc2)cc1)(C(=O)NO)[C@@H](O)c1ccno1 [Example 16, (2S,3R)-2-(biphenyl-4-ylmethoxy)-N,3-dihydroxy-3-isoxazol-5-yl-2-methylpropanamide] | 0.00079 | 8 (≈ 21.7 µM) | 64 (≈ 174 µM) | > 64 | > 64 | 0.125 (≈ 0.339 µM) | > 64 | > 64
CC(OCc1ccc(-c2ccccc2)cc1)(C(=O)NO)C(=O)NCc1ccncn1 (centres unmarked) [Example 71, 2-(biphenyl-4-ylmethoxy)-N-hydroxy-2-methyl-N′-(pyrimidin-4-ylmethyl)malonamide] | 0.00394 | 16 (≈ 39.4 µM) | 32 (≈ 78.7 µM) | > 64 | > 64 | 0.125 (≈ 0.308 µM) | > 64 | > 64
